Assay results taken from patent US9453062B2, “Glucose dependent insulinotropic polypeptide analogs, pharmaceutical compositions and use thereof” (Beijing Hanmi Pharmaceutical Co., Ltd., priority 2011, dated 2016).
Like-named read-outs stand apart in the source and are kept apart here. *1 amine or outer side, *2 acyl side, *3 side chain or, on linkers, in order; H or OH if unused. Where a SMILES comes first, the peptide text is derived from it. Bridges are numbered along the chain shown (N, C = ends). Side-chain parts run from the residue outwards. [ ]: non-standard residue; d: D form. The star is where a group is joined. Biotin = O=C1N[C@H]2[C@H](CS[C@H]2CCCCC(=O)*)N1; γGlu = O=C(O)[C@H](CCC(=O)[*:2])N[*:1]; Palmitoyl = CCCCCCCCCCCCCCCC(=O)*; Aib = CC(C)(N)C(=O)O

Key:
hGIPR = target: T1, hGIPR (Homo sapiens, UniProt P48546); experiment: hGIPR-mediated cAMP induction assay in CHO cell line; type: cell-based
T1 construct: expressed in transfected cells; host or cells: CHO
T1 sequence (P48546 22-466): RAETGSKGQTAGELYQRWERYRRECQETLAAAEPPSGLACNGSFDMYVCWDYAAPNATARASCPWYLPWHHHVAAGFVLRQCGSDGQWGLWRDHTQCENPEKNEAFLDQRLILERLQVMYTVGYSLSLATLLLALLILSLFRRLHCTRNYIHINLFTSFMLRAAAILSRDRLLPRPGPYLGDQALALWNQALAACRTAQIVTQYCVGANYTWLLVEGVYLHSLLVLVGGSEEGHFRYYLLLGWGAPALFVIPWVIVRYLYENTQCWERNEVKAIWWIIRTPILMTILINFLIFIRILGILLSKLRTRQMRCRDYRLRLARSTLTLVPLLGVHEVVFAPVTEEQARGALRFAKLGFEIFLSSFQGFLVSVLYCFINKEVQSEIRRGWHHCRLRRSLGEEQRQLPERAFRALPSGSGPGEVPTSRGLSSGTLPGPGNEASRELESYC
Text: The cAMP in the sample or standard competes with horseradish peroxidase (HRP)-labeled cAMP conjugate for binding sites on the anti-cAMP antibodies. In the absence of cAMP, most of the HRP-cAMP conjugate is bound to the antibody. Increasing concentrations of cAMP competitively decrease the amount of bound conjugate, thus decreasing measured HRP activity.
Assay kit: CatchPoint™ Cyclic-AMP Fluorescent Assay Kit (Molecular Devices, Product # R8088)
Cell lines: CHO hGLP1R, CHO hGIPR
Cell seeding: CHO hGLP1R or CHO hGIPR cells: 10,000 cells/well/100 uL at 37° C. 5% CO2 overnight.
Gently aspirate off media and wash the cells with KRBG Buffer, 100 uL/well.
Incubate the plate for 10 min at room temperature. Then add the KRBG buffer with 3× final concentration of the tested samples (5-foled series diluted from 5,000 nM), 50 uL/well. Incubate the plate at 37° C. 5% CO2 for 30 min.
Add 50 uL of Lysis buffer to each well and put the plate on a shaker for 10 min.
Place 40 uL of samples and analyze in appropriate wells. And test the cAMP concentration in each sample by following the manufacture's instruction.
Detect the fluorescence signal at Ex: 490 nm and Em: 530 nm. Transfer the FI signal to cAMP concentration by the cAMP standard curve. The Dose-response curve and EC50 were obtained by logistic fitting of Origin 8.

hGLP-1R = target: T2, hGLP-1R (Homo sapiens, UniProt P43220); experiment: hGLP-1R-mediated cAMP induction assay in CHO cell line; type: cell-based;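 note: CHO cells expressing human GLP-1R, treated 30 min at 37 °C, intracellular cAMP measured by competitive fluorescent immunoassay and converted via a cAMP standard curve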
T2 construct: expressed in transfected cells; host or cells: CHO
T2 sequence (P43220 24-463): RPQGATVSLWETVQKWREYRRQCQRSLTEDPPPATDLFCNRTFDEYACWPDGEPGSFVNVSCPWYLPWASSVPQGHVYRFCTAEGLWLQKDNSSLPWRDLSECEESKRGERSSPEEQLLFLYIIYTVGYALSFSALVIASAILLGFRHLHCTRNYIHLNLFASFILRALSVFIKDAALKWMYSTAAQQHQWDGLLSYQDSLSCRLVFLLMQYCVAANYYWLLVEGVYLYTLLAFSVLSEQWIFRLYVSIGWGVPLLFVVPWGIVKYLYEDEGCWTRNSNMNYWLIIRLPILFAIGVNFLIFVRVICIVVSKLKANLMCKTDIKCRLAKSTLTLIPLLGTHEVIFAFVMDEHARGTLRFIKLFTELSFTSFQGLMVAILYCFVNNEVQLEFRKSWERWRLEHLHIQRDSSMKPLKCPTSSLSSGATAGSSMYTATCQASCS

Molecule | GIP Receptor Relative Potency (hGIPR; Table 3, against native GIP) | GLP-1 Receptor Relative Potency (hGLP-1R; Table 3, against native GLP-1) | EC50 (hGIPR; Table 3, CHO hGIPR cells) [nM] | EC50 (hGLP-1R; Table 3, CHO hGLP1R cells) [nM] | EC50 (hGIPR; Table 1, CHO/hGIPR cells, read-out: GIPR EC50) [nM] | GIPR Relative Potency (hGIPR; Table 1, against native GIP) [%] | EC50 (hGLP-1R; Table 1, CHO/hGLP-1R cells, read-out: GLP-1R EC50) [nM] | GLP-1R Relative Potency (hGLP-1R; Table 1, against native GLP-1) [%]
CC[C@H](C)[C@H](NC(=O)[C@H](Cc1ccccc1)NC(=O)[C@H](CCC(=O)O)NC(=O)[C@H](CCCNC(=N)N)NC(=O)[C@@H](NC(=O)[C@H](C)NC(=O)[C@H](CCC(=O)O)NC(=O)[C@H](CCCCN)NC(=O)[C@H](CCC(=O)O)NC(=O)[C@H](CCSC)NC(=O)[C@H](Cc1ccc(O)cc1)NC(=O)[C@@H](NC(=O)[C@H](CO)NC(=O)[C@H](Cc1ccc(O)cc1)NC(=O)[C@H](CC(=O)O)NC(=O)[C@H](CO)NC(=O)[C@@H](NC(=O)[C@H](Cc1ccccc1)NC(=O)[C@@H](NC(=O)CNC(=O)[C@H](CCC(=O)O)NC(=O)C(C)(C)NC(=O)[C@@H](N)Cc1ccc(O)cc1)[C@@H](C)O)[C@@H](C)O)[C@@H](C)CC)C(C)C)C(=O)N[C@@H](C)C(=O)N[C@@H](Cc1c[nH]c2ccccc12)C(=O)N[C@@H](CC(C)C)C(=O)N[C@H](C(=O)N[C@@H](CCCCN)C(=O)NCC(=O)N[C@@H](CCCCN)C(=O)N[C@@H](CCCCN)C(=O)N[C@@H](CCCCN)C(=O)N[C@@H](CCCCN)C(=O)N[C@@H](CCCCN)C(N)=O)C(C)C [Compound 060] (H-Y[Aib]EGTFTSDYSIYMEKEAVREFIAWLVKGKKKKK-NH2; N-terminus assumed) | 8.4 | 36.8 | – | – | – | – | – | –
H-Y[Aib]EGTFTSDYSIYMEKEAVREFIAWLVKGGPSSGAPPPSKKKKKK(Biotin)-NH2 [Compound 080] | 67 | 98.5 | 0.1 | 1.11 | – | – | – | –
CC[C@H](C)[C@H](NC(=O)[C@H](Cc1ccccc1)NC(=O)[C@H](CCC(=O)O)NC(=O)[C@H](CCCNC(=N)N)NC(=O)[C@@H](NC(=O)[C@H](C)NC(=O)[C@H](CCC(=O)O)NC(=O)[C@H](CCCCN)NC(=O)[C@H](CCC(=O)O)NC(=O)[C@H](CCSC)NC(=O)[C@H](Cc1ccc(O)cc1)NC(=O)[C@@H](NC(=O)[C@H](CO)NC(=O)[C@H](Cc1ccc(O)cc1)NC(=O)[C@H](CC(=O)O)NC(=O)[C@H](CO)NC(=O)[C@@H](NC(=O)[C@H](Cc1ccccc1)NC(=O)[C@@H](NC(=O)CNC(=O)[C@H](CCC(=O)O)NC(=O)C(C)(C)NC(=O)[C@@H](N)Cc1ccc(O)cc1)[C@@H](C)O)[C@@H](C)O)[C@@H](C)CC)C(C)C)C(=O)N[C@@H](C)C(=O)N[C@@H](Cc1c[nH]c2ccccc12)C(=O)N[C@@H](CC(C)C)C(=O)N[C@H](C(=O)N[C@@H](CCCCN)C(=O)NCC(=O)NCC(=O)N1CCC[C@H]1C(=O)N[C@@H](CO)C(=O)N[C@@H](CO)C(=O)NCC(=O)N[C@@H](C)C(=O)N1CCC[C@H]1C(=O)N1CCC[C@H]1C(=O)N1CCC[C@H]1C(=O)N[C@@H](CO)C(=O)N[C@@H](CCCCNC(=O)CCCCCCCCCCCCCCC(=O)O)C(N)=O)C(C)C [Compound 106] | 67.0 | 157.8 | 0.097 | 0.922 | – | – | – | –
CC[C@H](C)[C@H](NC(=O)[C@H](Cc1ccccc1)NC(=O)[C@H](CCC(=O)O)NC(=O)[C@H](CCCNC(=N)N)NC(=O)[C@@H](NC(=O)[C@H](C)NC(=O)[C@H](CCC(=O)O)NC(=O)[C@H](CCCCN)NC(=O)[C@H](CCC(=O)O)NC(=O)[C@H](CCSC)NC(=O)[C@H](Cc1ccc(O)cc1)NC(=O)[C@@H](NC(=O)[C@H](CO)NC(=O)[C@H](Cc1ccc(O)cc1)NC(=O)[C@H](CC(=O)O)NC(=O)[C@H](CO)NC(=O)[C@@H](NC(=O)[C@H](Cc1ccccc1)NC(=O)[C@@H](NC(=O)CNC(=O)[C@H](CCC(=O)O)NC(=O)C(C)(C)NC(=O)[C@@H](N)Cc1ccc(O)cc1)[C@@H](C)O)[C@@H](C)O)[C@@H](C)CC)C(C)C)C(=O)N[C@@H](C)C(=O)N[C@@H](Cc1c[nH]c2ccccc12)C(=O)N[C@@H](CC(C)C)C(=O)N[C@H](C(=O)N[C@@H](CCCCN)C(=O)NCC(N)=O)C(C)C [Compounds 023] (H-Y[Aib]EGTFTSDYSIYMEKEAVREFIAWLVKG-NH2) | 106.8 | 75 | – | – | 0.088 | 106.8 | 1.28 | 75
CCCCCCCCCCCCCCCC(=O)N[C@@H](CCC(=O)N[C@@H](CCC(=O)NCCCC[C@H](NC(=O)[C@@H](NC(=O)[C@H](C)NC(=O)[C@H](CCC(=O)O)NC(=O)[C@H](CCCCN)NC(=O)[C@H](CCC(=O)O)NC(=O)[C@H](CCSC)NC(=O)[C@H](Cc1ccc(O)cc1)NC(=O)[C@@H](NC(=O)[C@H](CO)NC(=O)[C@H](Cc1ccc(O)cc1)NC(=O)[C@H](CC(=O)O)NC(=O)[C@H](CO)NC(=O)[C@@H](NC(=O)[C@H](Cc1ccccc1)NC(=O)[C@@H](NC(=O)CNC(=O)[C@H](CCC(=O)O)NC(=O)C(C)(C)NC(=O)[C@@H](N)Cc1ccc(O)cc1)[C@@H](C)O)[C@@H](C)O)[C@@H](C)CC)C(C)C)C(=O)N[C@@H](CCC(=O)O)C(=O)N[C@@H](Cc1ccccc1)C(=O)N[C@H](C(=O)N[C@@H](C)C(=O)N[C@@H](Cc1c[nH]c2ccccc12)C(=O)N[C@@H](CC(C)C)C(=O)N[C@H](C(=O)N[C@@H](CCCCN)C(=O)NCC(=O)NCC(=O)N1CCC[C@H]1C(=O)N[C@@H](CO)C(=O)N[C@@H](CO)C(=O)NCC(=O)N[C@@H](C)C(=O)N1CCC[C@H]1C(=O)N1CCC[C@H]1C(=O)N1CCC[C@H]1C(=O)N[C@@H](CO)C(N)=O)C(C)C)[C@@H](C)CC)C(=O)O)C(=O)O [Compound 093] (H-Y[Aib]EGTFTSDYSIYMEKEAVK([γGlu-γGlu-Palmitoyl])EFIAWLVKGGPSSGAPPPS-NH2) | 133.3 | 232.5 | 0.03 | 0.43 | – | – | – | –
CCCCCCCCCCCCCCCC(=O)NCCCC[C@H](NC(=O)[C@H](CO)NC(=O)[C@@H]1CCCN1C(=O)[C@@H]1CCCN1C(=O)[C@@H]1CCCN1C(=O)[C@H](C)NC(=O)CNC(=O)[C@H](CO)NC(=O)[C@H](CO)NC(=O)[C@@H]1CCCN1C(=O)CNC(=O)CNC(=O)[C@@H]1CCCCNC(=O)CC[C@H](NC(=O)[C@@H](NC(=O)[C@H](Cc2ccccc2)NC(=O)[C@H](CCC(=O)O)NC(=O)[C@H](CCCCN)NC(=O)[C@@H](NC(=O)[C@H](C)NC(=O)[C@H](CCC(=O)O)NC(=O)[C@H](CCCCN)NC(=O)[C@H](CCC(=O)O)NC(=O)[C@H](CCSC)NC(=O)[C@H](Cc2ccc(O)cc2)NC(=O)[C@@H](NC(=O)[C@H](CO)NC(=O)[C@H](Cc2ccc(O)cc2)NC(=O)[C@H](CC(=O)O)NC(=O)[C@H](CO)NC(=O)[C@@H](NC(=O)[C@H](Cc2ccccc2)NC(=O)[C@@H](NC(=O)CNC(=O)[C@H](CCC(=O)O)NC(=O)C(C)(C)NC(=O)[C@@H](N)Cc2ccc(O)cc2)[C@@H](C)O)[C@@H](C)O)[C@@H](C)CC)C(C)C)[C@@H](C)CC)C(=O)N[C@@H](Cc2c[nH]c3ccccc23)C(=O)N[C@@H](CC(C)C)C(=O)N[C@@H](C(C)C)C(=O)N1)C(N)=O [Compound 102] (H-Y[Aib]EGTFTSDYSIYMEKEAVKEFIEWLVKGGPSSGAPPPSK(Palmitoyl)-NH2; lactam 24-28; N-terminus assumed) | 460 | 510.1 | 0.015 | 0.069 | – | – | – | –
CC[C@H](C)[C@H](NC(=O)[C@H](CO)NC(=O)[C@H](Cc1ccc(O)cc1)NC(=O)[C@H](CC(=O)O)NC(=O)[C@H](CO)NC(=O)[C@@H](NC(=O)[C@H](Cc1ccccc1)NC(=O)[C@@H](NC(=O)CNC(=O)[C@H](CCC(=O)O)NC(=O)C(C)(C)NC(=O)[C@@H](N)Cc1ccc(O)cc1)[C@@H](C)O)[C@@H](C)O)C(=O)N[C@@H](Cc1ccc(O)cc1)C(=O)N[C@@H](CCSC)C(=O)N[C@@H](CCC(=O)O)C(=O)N[C@@H](CCCCN)C(=O)N[C@@H](CCC(=O)O)C(=O)N[C@@H](C)C(=O)N[C@H](C(=O)N[C@@H](CCCNC(=N)N)C(=O)N[C@@H](CCC(=O)O)C(=O)N[C@@H](Cc1ccccc1)C(=O)N[C@H](C(=O)N[C@@H](CCC(=O)O)C(=O)N[C@@H](Cc1c[nH]c2ccccc12)C(=O)N[C@@H](CC(C)C)C(=O)N[C@H](C(=O)N[C@@H](CCCCN)C(=O)NCC(N)=O)C(C)C)[C@@H](C)CC)C(C)C [Compound 054-1] (H-Y[Aib]EGTFTSDYSIYMEKEAVREFIEWLVKG-NH2) | 77.7 | – | 0.27 | 2.99 | – | – | – | –
CC[C@H](C)[C@H](NC(=O)[C@H](Cc1ccccc1)NC(=O)[C@H](CCC(=O)O)NC(=O)[C@H](CCCNC(=N)N)NC(=O)[C@@H](NC(=O)[C@H](C)NC(=O)[C@H](CCC(=O)O)NC(=O)[C@H](CCCCN)NC(=O)[C@H](CCC(=O)O)NC(=O)[C@H](CCSC)NC(=O)[C@H](Cc1ccc(O)cc1)NC(=O)[C@@H](NC(=O)[C@H](CO)NC(=O)[C@H](Cc1ccc(O)cc1)NC(=O)[C@H](CC(=O)O)NC(=O)[C@H](CO)NC(=O)[C@@H](NC(=O)[C@H](Cc1ccccc1)NC(=O)[C@@H](NC(=O)CNC(=O)[C@H](CCC(=O)O)NC(=O)C(C)(C)NC(=O)[C@@H](N)Cc1ccc(O)cc1)[C@@H](C)O)[C@@H](C)O)[C@@H](C)CC)C(C)C)C(=O)N[C@@H](C)C(=O)N[C@@H](Cc1c[nH]c2ccccc12)C(=O)N[C@@H](CC(C)C)C(=O)N[C@H](C(=O)N[C@@H](CCCCN)C(=O)NCC(=O)NCC(=O)N1CCC[C@H]1C(=O)N[C@@H](CO)C(=O)N[C@@H](CO)C(=O)NCC(=O)N[C@@H](C)C(=O)N1CCC[C@H]1C(=O)N1CCC[C@H]1C(=O)N1CCC[C@H]1C(=O)N[C@@H](CO)C(N)=O)C(C)C [Compound 051] (H-Y[Aib]EGTFTSDYSIYMEKEAVREFIAWLVKGGPSSGAPPPS-NH2; N-terminus assumed) | 89.5 | 159.8 | 0.19 | 0.599 | – | – | – | –
